The record followed here is ChEMBL document CHEMBL2413016, “Synthesis and in vivo evaluation of [(18)F]2-(4-(4-(2-(2-fluoroethoxy)phenyl)piperazin-1-yl)butyl)-4-methyl-1,2,4-triazine-3,5(2H,4H)-dione ([(18)F]FECUMI-101) as an imaging probe for 5-HT1A receptor agonist in nonhuman primates” (Bioorg Med Chem, 2013).

The target of one test is D(1A) dopamine receptor (Homo sapiens, UniProt P21728). Kind of test: Binding affinity to dopamine 1 receptor (unknown origin).
In test [1] the target is 5-hydroxytryptamine receptor 1B (Homo sapiens, UniProt P28222). Description: Binding affinity to 5HT1B receptor (unknown origin).
Test [2] addresses Sigma non-opioid intracellular receptor 1 (Homo sapiens, UniProt Q99720). Kind of test: Binding affinity to sigma 1 receptor (unknown origin).
The target in test [3] is 5-hydroxytryptamine receptor 1D (Homo sapiens, UniProt P28221). Kind of test: Binding affinity to 5HT1D receptor (unknown origin).
In test [4] the target is 5-hydroxytryptamine receptor 7 (Homo sapiens, UniProt P34969). Description: Binding affinity to 5HT7 receptor (unknown origin).
Test [5] in a line: Binding affinity to sigma 2 receptor (unknown origin). Set-up: species or system Homo sapiens.
In test [6] the target is T1, 5-hydroxytryptamine receptor 1A (Homo sapiens, UniProt P08908).
T1 sequence (P08908 whole entry): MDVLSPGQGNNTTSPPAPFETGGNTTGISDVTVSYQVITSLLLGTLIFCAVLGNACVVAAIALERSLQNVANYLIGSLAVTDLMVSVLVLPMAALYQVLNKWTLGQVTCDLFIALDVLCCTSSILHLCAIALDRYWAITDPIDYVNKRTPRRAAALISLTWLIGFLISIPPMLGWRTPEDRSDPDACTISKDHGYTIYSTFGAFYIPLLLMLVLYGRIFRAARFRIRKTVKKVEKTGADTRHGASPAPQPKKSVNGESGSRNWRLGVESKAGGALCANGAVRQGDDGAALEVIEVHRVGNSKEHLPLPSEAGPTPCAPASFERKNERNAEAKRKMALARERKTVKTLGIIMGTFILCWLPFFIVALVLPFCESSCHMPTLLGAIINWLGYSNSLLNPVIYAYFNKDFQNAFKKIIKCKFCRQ
Kind of test: Partial agonist activity at human 5HT1A receptor expressed in CHO cells assessed as increase in [35S]GTPgammaS binding. Type of test: functional, cell-based.

Test [7] addresses 5-hydroxytryptamine receptor 2B (Homo sapiens, UniProt P41595). Description: Binding affinity to 5HT2B receptor (unknown origin).
The target in test [8] is T1, 5-hydroxytryptamine receptor 1A. Description: Binding affinity to 5HT1A receptor (unknown origin).
The target of the next test is D(4) dopamine receptor (Homo sapiens, UniProt P21917). Kind of test: Binding affinity to dopamine 4 receptor (unknown origin).
The target of test [9] is Alpha-2B adrenergic receptor (Homo sapiens, UniProt P18089). Description: Binding affinity to adrenergic alpha2B receptor (unknown origin).
Another test concerns the target Histamine H2 receptor (Homo sapiens, UniProt P25021). Kind of test: Binding affinity to histamine H2 receptor (unknown origin).
A further test concerns the target D(3) dopamine receptor (Homo sapiens, UniProt P35462). Description: Binding affinity to dopamine 3 receptor (unknown origin).
In test [10] the target is Alpha-2A adrenergic receptor (Homo sapiens, UniProt P08913). Description: Binding affinity to adrenergic alpha2A receptor (unknown origin).
Test [11] has as its target Alpha-1B adrenergic receptor (Homo sapiens, UniProt P35368). Kind of test: Binding affinity to adrenergic alpha1B receptor (unknown origin).
The next test deals with D(2) dopamine receptor (Homo sapiens, UniProt P14416). Description: Binding affinity to dopamine 2 receptor (unknown origin).
The target of test [12] is Alpha-1D adrenergic receptor (Homo sapiens, UniProt P25100). Description: Binding affinity to adrenergic alpha1D receptor (unknown origin).
The target in test [13] is 5-hydroxytryptamine receptor 1A (Homo sapiens) (UniProt P08908). Description: Partial agonist activity at human 5HT1A receptor expressed in CHO cells assessed as increase in [35S]GTPgammaS binding relative to serotonin. Type of test: functional, cell-based. Background: GTPγS is a poorly hydrolysed GTP analogue; its binding reports G protein activation.
For test [14], the target named is 5-hydroxytryptamine receptor 2A (Homo sapiens, UniProt P28223). Kind of test: Binding affinity to 5HT2A receptor (unknown origin).
Test [15] concerns the target Alpha-1A adrenergic receptor (Homo sapiens, UniProt P35348). Description: Binding affinity to adrenergic alpha1A receptor (unknown origin).
Test [16] deals with Alpha-2C adrenergic receptor (Homo sapiens, UniProt P18825). Kind of test: Binding affinity to adrenergic alpha2C receptor (unknown origin).
The target of test [17] is 5-hydroxytryptamine receptor 5A (Homo sapiens, UniProt P47898). Kind of test: Binding affinity to 5HT5A receptor (unknown origin).
The next test has as its target Histamine H1 receptor (Homo sapiens, UniProt P35367). Kind of test: Binding affinity to histamine H1 receptor (unknown origin).
Test [18] can be described thus: Binding affinity to benzodiazepine receptor in rat brain. Type of test: tissue-based.

A value given as a limit tells only on which side of the number the result lay.

Alpha-1A adrenergic receptor, sequence (P35348 whole entry): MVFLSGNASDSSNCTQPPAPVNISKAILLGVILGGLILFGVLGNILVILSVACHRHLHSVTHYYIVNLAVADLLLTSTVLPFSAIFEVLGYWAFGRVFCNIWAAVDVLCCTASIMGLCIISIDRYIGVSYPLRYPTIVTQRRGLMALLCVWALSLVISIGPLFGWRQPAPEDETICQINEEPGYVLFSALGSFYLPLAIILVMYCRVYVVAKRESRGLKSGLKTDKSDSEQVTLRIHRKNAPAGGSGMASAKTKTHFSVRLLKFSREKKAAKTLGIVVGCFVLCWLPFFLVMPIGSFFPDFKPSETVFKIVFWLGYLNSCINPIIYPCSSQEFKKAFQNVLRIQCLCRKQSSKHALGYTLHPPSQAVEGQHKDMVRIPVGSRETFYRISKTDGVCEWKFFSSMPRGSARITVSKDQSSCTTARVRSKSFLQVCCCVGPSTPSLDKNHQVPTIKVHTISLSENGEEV
5-hydroxytryptamine receptor 2B, sequence (P41595 whole entry): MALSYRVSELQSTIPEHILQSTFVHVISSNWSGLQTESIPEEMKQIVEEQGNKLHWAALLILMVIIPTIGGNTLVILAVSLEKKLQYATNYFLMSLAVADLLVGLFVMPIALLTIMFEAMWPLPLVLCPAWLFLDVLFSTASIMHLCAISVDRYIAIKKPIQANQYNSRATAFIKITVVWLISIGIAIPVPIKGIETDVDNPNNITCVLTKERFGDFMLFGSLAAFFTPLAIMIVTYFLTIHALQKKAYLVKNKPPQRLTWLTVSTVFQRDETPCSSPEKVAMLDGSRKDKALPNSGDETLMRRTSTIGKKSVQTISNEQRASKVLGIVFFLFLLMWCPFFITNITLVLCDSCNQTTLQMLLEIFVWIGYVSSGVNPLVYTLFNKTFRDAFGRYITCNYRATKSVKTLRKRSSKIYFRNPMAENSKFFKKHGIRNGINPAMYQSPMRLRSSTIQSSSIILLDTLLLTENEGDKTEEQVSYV
Histamine H2 receptor, sequence (P25021 whole entry): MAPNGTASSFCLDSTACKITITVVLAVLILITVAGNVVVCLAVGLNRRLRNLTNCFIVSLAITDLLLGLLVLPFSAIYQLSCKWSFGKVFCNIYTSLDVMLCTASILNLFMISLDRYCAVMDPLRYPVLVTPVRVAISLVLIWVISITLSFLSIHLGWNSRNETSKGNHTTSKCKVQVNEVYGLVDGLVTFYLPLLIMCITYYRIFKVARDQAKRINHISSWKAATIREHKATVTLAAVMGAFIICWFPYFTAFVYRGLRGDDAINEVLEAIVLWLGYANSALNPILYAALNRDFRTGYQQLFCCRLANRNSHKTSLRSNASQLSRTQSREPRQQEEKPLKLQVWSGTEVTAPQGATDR
D(3) dopamine receptor, sequence (P35462 whole entry): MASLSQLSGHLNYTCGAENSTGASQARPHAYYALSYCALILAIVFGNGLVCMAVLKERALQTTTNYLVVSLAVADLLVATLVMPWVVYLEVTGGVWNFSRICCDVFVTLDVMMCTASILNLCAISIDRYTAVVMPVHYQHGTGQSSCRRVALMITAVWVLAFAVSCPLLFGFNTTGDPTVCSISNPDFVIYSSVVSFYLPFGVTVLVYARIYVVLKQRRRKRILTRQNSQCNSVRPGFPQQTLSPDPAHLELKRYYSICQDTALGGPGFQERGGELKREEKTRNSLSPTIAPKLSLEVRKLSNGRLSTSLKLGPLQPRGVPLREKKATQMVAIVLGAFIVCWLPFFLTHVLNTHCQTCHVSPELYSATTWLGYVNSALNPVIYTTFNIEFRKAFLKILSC
Alpha-2B adrenergic receptor, sequence (P18089 whole entry): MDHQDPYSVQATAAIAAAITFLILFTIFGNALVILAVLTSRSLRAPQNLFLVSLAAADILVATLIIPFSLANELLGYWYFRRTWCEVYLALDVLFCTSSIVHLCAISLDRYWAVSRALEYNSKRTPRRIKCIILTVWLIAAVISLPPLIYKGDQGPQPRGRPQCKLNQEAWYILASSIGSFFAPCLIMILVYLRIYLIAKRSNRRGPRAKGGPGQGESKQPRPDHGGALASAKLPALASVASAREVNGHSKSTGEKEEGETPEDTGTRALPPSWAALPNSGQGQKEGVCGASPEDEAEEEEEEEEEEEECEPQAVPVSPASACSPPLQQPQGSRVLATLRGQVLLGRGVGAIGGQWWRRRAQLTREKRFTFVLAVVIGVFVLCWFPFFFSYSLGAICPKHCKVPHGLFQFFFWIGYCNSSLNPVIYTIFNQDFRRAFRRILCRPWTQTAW
D(2) dopamine receptor, sequence (P14416 whole entry): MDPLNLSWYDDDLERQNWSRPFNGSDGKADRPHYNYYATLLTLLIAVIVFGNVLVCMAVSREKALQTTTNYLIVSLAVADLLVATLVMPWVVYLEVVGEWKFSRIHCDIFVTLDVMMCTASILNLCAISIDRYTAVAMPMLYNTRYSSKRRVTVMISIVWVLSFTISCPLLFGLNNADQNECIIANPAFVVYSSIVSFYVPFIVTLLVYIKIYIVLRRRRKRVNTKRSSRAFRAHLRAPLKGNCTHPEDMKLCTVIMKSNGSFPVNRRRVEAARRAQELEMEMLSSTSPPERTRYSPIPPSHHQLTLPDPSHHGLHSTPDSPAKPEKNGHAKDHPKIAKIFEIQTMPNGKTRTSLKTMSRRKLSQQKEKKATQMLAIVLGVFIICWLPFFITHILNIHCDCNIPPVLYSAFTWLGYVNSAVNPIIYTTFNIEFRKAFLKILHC
D(1A) dopamine receptor, sequence (P21728 whole entry): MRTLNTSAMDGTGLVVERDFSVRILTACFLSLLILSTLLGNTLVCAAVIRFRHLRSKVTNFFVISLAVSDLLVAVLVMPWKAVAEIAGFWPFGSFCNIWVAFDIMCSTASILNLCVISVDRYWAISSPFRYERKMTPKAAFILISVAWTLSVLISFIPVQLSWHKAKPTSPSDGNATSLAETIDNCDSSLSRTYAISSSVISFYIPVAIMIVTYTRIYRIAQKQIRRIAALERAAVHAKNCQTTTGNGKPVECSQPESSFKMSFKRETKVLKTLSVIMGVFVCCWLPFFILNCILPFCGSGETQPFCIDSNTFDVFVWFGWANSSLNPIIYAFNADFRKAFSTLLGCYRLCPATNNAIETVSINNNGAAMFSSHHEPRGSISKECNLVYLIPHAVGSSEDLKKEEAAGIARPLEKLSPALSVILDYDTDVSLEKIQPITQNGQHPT
Alpha-1B adrenergic receptor, sequence (P35368 whole entry): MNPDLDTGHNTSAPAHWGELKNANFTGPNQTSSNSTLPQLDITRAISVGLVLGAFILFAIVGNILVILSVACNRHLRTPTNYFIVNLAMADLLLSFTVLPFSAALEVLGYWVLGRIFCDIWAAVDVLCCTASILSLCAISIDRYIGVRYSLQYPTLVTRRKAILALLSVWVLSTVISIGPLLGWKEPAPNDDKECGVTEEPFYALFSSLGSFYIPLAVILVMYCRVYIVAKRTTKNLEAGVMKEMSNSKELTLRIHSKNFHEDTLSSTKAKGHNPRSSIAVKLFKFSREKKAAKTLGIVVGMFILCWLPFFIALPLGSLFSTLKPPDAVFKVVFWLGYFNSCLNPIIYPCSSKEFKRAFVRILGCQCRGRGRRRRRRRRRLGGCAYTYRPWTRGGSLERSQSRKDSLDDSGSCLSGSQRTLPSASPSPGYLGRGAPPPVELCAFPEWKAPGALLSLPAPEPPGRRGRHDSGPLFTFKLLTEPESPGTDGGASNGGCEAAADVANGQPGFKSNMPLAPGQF
5-hydroxytryptamine receptor 1D, sequence (P28221 whole entry): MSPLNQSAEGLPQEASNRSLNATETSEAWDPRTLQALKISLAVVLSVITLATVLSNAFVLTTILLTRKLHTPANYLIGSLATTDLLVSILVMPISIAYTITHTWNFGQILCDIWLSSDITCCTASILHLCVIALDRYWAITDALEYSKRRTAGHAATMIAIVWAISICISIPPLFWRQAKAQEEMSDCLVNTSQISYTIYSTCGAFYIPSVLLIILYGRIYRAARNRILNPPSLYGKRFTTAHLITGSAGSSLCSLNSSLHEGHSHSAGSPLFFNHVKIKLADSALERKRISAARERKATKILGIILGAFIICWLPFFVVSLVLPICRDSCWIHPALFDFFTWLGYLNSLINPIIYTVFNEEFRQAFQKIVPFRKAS
Alpha-2A adrenergic receptor, sequence (P08913 whole entry): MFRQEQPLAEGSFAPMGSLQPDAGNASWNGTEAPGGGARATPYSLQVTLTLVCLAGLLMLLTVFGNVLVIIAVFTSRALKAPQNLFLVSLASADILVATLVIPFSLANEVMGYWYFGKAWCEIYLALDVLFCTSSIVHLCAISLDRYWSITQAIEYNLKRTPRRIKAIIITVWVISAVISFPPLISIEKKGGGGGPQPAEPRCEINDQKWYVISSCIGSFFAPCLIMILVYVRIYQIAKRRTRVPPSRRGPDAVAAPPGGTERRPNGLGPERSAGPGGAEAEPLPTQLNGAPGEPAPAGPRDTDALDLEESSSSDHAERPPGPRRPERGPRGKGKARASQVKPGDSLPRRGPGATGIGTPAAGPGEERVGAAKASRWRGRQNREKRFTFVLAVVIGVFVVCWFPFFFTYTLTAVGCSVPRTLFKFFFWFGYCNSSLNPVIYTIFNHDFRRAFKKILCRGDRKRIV
Sigma non-opioid intracellular receptor 1, sequence (Q99720 whole entry): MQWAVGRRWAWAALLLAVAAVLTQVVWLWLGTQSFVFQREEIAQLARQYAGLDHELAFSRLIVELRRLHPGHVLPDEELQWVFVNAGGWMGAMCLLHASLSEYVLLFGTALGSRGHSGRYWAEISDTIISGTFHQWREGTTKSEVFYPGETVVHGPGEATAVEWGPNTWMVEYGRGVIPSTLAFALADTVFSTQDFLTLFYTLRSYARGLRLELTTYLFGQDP

For `Cn1c(=O)cnn(CCCCN2CCN(c3ccccc3OCCF)CC2)c1=O`, the Ki (commonly a dissociation constant, usually derived from enzyme kinetics or from competition with a known ligand) at D(1A) dopamine receptor is over 10000 nM; in test [1] it was 411 nM; in test [2], over 10000 nM; in test [3], 235 nM; in test [4], 17.2 nM; in [5], 1730 nM. For the same molecule, the inhibition constant (Ki) in test [7] is 300 nM; in test [8], 0.1 nM; on D(4) dopamine receptor it was 71 nM; in [9], 56.2 nM; on Histamine H2 receptor it was 1770 nM; at D(3) dopamine receptor, 22 nM. Also, the Ki is 2750 nM in [10]; 26.8 nM in [11]; 37.1 nM on D(2) dopamine receptor; 62.6 nM in test [12]; over 10000 nM in test [14]; 21.4 nM in test [15]. Also, the inhibition constant Ki in [16] was found to be 174 nM; in test [17] it was 2130 nM; on Histamine H1 receptor it was 512 nM; in test [18] it was 6240 nM. Moreover, the 50% effective concentration (EC50) (usually the concentration at which the effect is half-maximal) in [6] was 0.65 nM. Moreover, the Emax (as a rule, the greatest response seen or fitted, relative to the assay's reference) in [13] came out at 77%.
